For 20 compounds, Emax, EC50 and Ki results are on record in patent US10780092B2, “Fused pyrazine derivatives useful as soluble guanylate cyclase stimulators” (Merck Sharp & Dohme Corp., priority 2016, dated 2020).

The target in one assay is sGC α1/β1 heterodimer (Homo sapiens (Human), UniProt Q02108+Q02153). The assay can be described thus: Cell-based sGC functional assay (CASA assay), cGMP by HTRF. The conditions noted are these: CHO-K1/sGC cells; for Emax: CHO-K1, cGMP production as percentage of maximum of compound A (set to 100%), read-out: % Activation; for EC50: inflection point of cGMP production, 4P fit, read-out: IP. A digest of the protocol: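 cGMP made in CHO-K1/sGC (human α1/β1) cells is read by HTRF after compound treatment for 1 hr at 37° C, following 30 min at 25° C with or without 1 μM DETA-NO; IBMX 0.5 mM present. Values are % of standard compound maximum; 4P fit.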

The target of assay [1] is human recombinant sGC enzyme (Homo sapiens (Human), UniProt Q02108+Q02153). The assay can be described thus: SEC competition binding assay with [3H] Compound B radioligand. The note with it: displacement of 1.6 nM [3H] Compound B, 24 h at 37° C. A digest of the protocol:
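Competition format: [3H] Compound B (1.6 nM) displaced from human recombinant sGC over 24 h at 37° C. in triethanolamine pH 7.4 buffer with MgCl2, BSA, DTT, 300 μM DETA/NO and 400 μM GTP (1% DMSO). Gel-filtration eluates counted by liquid scintillation; 1 μM Compound B defined non-specific binding; Ki by one-site fit.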

Molecules are shown by their SMILES.

As a reminder, the Ki is the dissociation constant of the complex between target and ligand, obtained from inhibition or displacement. As for `CC1(c2cc(O)c(Cl)c(F)c2)C(=O)Nc2nc(-c3cn4ccnc4c(CC4CCCCC4)n3)nc(N)c21` (stereo not drawn) [Example 12-B, 4-Amino-5-(4-chloro-3-fluoro-5-hydroxyphenyl)-2-(8-(cyclohexylmethyl)imidazo[1,2-a]pyrazin-6-yl)-5-methyl-5,7-dihydro-6H-pyrrolo[2,3-d]pyrimidin-6-one], at sGC α1/β1 heterodimer, the Emax turned out to be 116% and the EC50 was found to be 98 nM. In addition, the Ki in assay [1] is 0.153 nM.
Taken in the same sequence, the figures for `CC1(c2ccc(O)cc2)C(=O)Nc2nc(-c3cn4ccnc4c(CCC(F)(F)C(F)(F)F)n3)nc(N)c21` (stereo not drawn) [Example 81-B, 4-Amino-5-(4-hydroxyphenyl)-5-methyl-2-(8-(3,3,4,4,4-pentafluorobutyl)imidazo[1,2-a]pyrazin-6-yl)-5,7-dihydro-6H-pyrrolo[2,3-d]pyrimidin-6-one] were 131%, 352 nM and 14 nM.
`CC(C)CCc1nc(-c2nc(N)c3c(n2)NC(=O)C3(C)c2cccc(O)c2)cn2ccnc12` (stereo not drawn) [Example 59-B, 4-Amino-5-(3-hydroxyphenyl)-2-(8-isopentylimidazo[1,2-a]pyrazin-6-yl)-5-methyl-5,7-dihydro-6H-pyrrolo[2,3-d]pyrimidin-6-one]: at sGC α1/β1 heterodimer, the Emax was found to be 109% and the EC50 is 335 nM. Also, the Ki in assay [1] was 1.72 nM.
Taken in the same sequence, the figures for `CC1(c2cc(O)c(C#N)c(Cl)c2)C(=O)Nc2nc(-c3cn4ccnc4c(Cc4cccc(F)c4)n3)nc(N)c21` (stereo not drawn) [Example 144-A, 4-(4-amino-2-{8-(3-fluorobenzyl)imidazo-[1,2-a]pyrazin-6-yl}-5-methyl-6-oxo-6,7-dihydro-5H-pyrrolo-[2,3-d]pyrimidin-5-yl)-2-chloro-6-hydroxy-benzonitrile] were 91%, 2680 nM and 0.333 nM.
As to `CC(C)CCc1nc(-c2nc(N)c3c(n2)NC(=O)C3(C)c2cc(O)c(Cl)c(F)c2)cn2ccnc12` (stereo not drawn) [Example 32-B, 4-Amino-5-(4-chloro-3-fluoro-5-hydroxyphenyl)-2-(8-isopentylimidazo[1,2-a]pyrazin-6-yl)-5-methyl-5,7-dihydro-6H-pyrrolo[2,3-d]pyrimidin-6-one], at sGC α1/β1 heterodimer, the Emax turned out to be 107% and the EC50 amounted to 648 nM. Besides, the Ki in assay [1] was found to be 0.306 nM.
On to `CC1(c2ccc(Cl)c(O)c2)C(=O)Nc2nc(-c3cn4ccnc4c(Cc4ccc(F)cc4F)n3)nc(N)c21` (stereo not drawn) [Example 91-A, 4-Amino-5-(4-chloro-3-hydroxyphenyl)-2-{8-[(2,4-difluorophenyl)methyl]imidazo[1,2-a]pyrazin-6-yl}-5-methyl-5,7-dihydro-6H-pyrrolo[2,3-d]pyrimidin-6-one], for which, at sGC α1/β1 heterodimer, the Emax was determined as 141% and the EC50 was found to be 75 nM. Further, the Ki in assay [1] came to 0.199 nM.
Taken in the same sequence, the figures for `CN1CCN(c2nc(-c3cn4ccnc4c(Cc4ccc(F)cc4)n3)nc3c2C(C)(c2ccc(Cl)c(O)c2)C(=O)N3)CC1` (stereo not drawn) [Example 134-A, 5-(4-Chloro-3-hydroxy-phenyl)-2-{8-[(4-fluoro-phenyl)methyl]imidazo-[1,2-a]pyrazin-6-yl}-5-methyl-4-(4-methyl-piperazin-1-yl)-5,7-dihydro-6H-pyrrolo-[2,3-d]pyrimidin-6-one] were 102%, 333 nM and 0.592 nM.
Taken in the same sequence, the figures for `CC1(c2ccc(F)c(O)c2)C(=O)Nc2nc(-c3cn4ccnc4c(Cc4ccc(F)cc4)n3)nc(N)c21` (stereo not drawn) [Example 37-B, 4-Amino-5-(4-fluoro-3-hydroxyphenyl)-2-{8-[(4-fluorophenyl)methyl]imidazo[1,2-a]pyrazin-6-yl}-5-methyl-5,7-dihydro-6H-pyrrolo[2,3-d]pyrimidin-6-one] were 117%, 69 nM and 0.427 nM.
Taken in the same sequence, the figures for `CC1(c2ccc(O)c(F)c2)C(=O)Nc2nc(-c3cn4ccnc4c(CCC4CCCCC4)n3)nc(N)c21` (stereo not drawn) [Example 84-B, 4-Amino-2-(8-(2-cyclohexylethyl)imidazo[1,2-a]pyrazin-6-yl)-5-(3-fluoro-4-hydroxyphenyl)-5-methyl-5,7-dihydro-6H-pyrrolo[2,3-d]pyrimidin-6-one] were 121%, 313 nM and 3.46 nM.
On to `CC(C)CCc1nc(-c2nc(N)c3c(n2)NC(=O)C3(C)c2ccc(O)c(F)c2)cn2ccnc12` (stereo not drawn) [Example 54-B, 4-Amino-5-(3-fluoro-4-hydroxyphenyl)-2-(8-isopentylimidazo[1,2-a]pyrazin-6-yl)-5-methyl-5,7-dihydro-6H-pyrrolo[2,3-d]pyrimidin-6-one], for which, on sGC α1/β1 heterodimer, the Emax was 72% and the EC50 turned out to be 42 nM. In assay [1], the Ki turned out to be 1.08 nM.
Taken in the same sequence, the figures for `CCCCc1nc(-c2nc(N)c3c(n2)NC(=O)C3(C)c2ccc(O)c(F)c2)cn2ncnc12` (stereo not drawn) [Example 71-B, 4-Amino-2-(8-butyl-[1,2,4]triazolo[1,5-a]pyrazin-6-yl)-5-(3-fluoro-4-hydroxyphenyl)-5-methyl-5,7-dihydro-6H-pyrrolo[2,3-d]pyrimidin-6-one] were 81%, 30 nM and 4.08 nM.
For `CC1(c2ccc(O)c(F)c2)C(=O)Nc2nc(-c3cn4ccnc4c(Cc4ccccc4)n3)nc(N)c21` (stereo not drawn) [Example 128-B, 4-Amino-2-(8-benzyl-imidazo[1,2-a]pyrazin-6-yl)-5-(3-fluoro-4-hydroxyphenyl)-5-methyl-5,7-dihydro-6H-pyrrolo[2,3-d]-pyrimidin-6-one], on sGC α1/β1 heterodimer, the Emax came out at 137% and the EC50 turned out to be 1200 nM. Also, in assay [1], the inhibition constant Ki was determined as 0.646 nM.
Taken in the same sequence, the figures for `CC1(c2cccc(O)c2)C(=O)Nc2nc(-c3cn4ccnc4c(Cc4ccc(F)cc4F)n3)nc(N)c21` (stereo not drawn) [Example 34-B, 4-Amino-2-{8-[(2,4-difluorophenyl)methyl]imidazo[1,2-a]pyrazin-6-yl}-5-(3-hydroxyphenyl)-5-methyl-5,7-dihydro-6H-pyrrolo[2,3-d]pyrimidin-6-one] were 111%, 243 nM and 0.317 nM.
On to `CC1(c2cc(O)c(C(F)(F)F)cn2)C(=O)Nc2nc(-c3cn4ccnc4c(CC4CCCCC4)n3)nc(N)c21` (stereo not drawn) [Example 147-B, 4-amino-2-{8-(cyclohexylmethyl)-imidazo[1,2-a]pyrazin-6-yl}-5-(4-hydroxy-5-(trifluoromethyl)pyridin-2-yl)-5-methyl-5,7-dihydro-6H-pyrrolo-[2,3-d]pyrimidin-6-one], for which, on sGC α1/β1 heterodimer, the Emax worked out at 102% and the EC50 was 1200 nM. Also, the inhibition constant (Ki) in assay [1] came to 0.905 nM.
For `CC1(c2ccc(Cl)c(O)c2)C(=O)Nc2nc(-c3cn4ccnc4c(Cc4ccc(F)cc4)n3)nc(N3CCC(F)(F)CC3)c21` (stereo not drawn) [Example 136-A, 5-(4-Chloro-3-hydroxy-phenyl)-4-(4,4-difluoro-piperidin-1-yl)-2-{8-[(4-fluorophenyl)methyl]-imidazo[1,2-a]pyrazin-6-yl}-5-methyl-5,7-dihydro-6H-pyrrolo[2,3-d]-pyrimidin-6-one], on sGC α1/β1 heterodimer, the Emax amounted to 66% and the EC50 stood at 511 nM. Also, the inhibition constant Ki in assay [1] is 1.57 nM.
Consider `CC1(c2cccc(O)c2)C(=O)Nc2nc(-c3cn4ccnc4c(Cc4cc(F)cc(F)c4)n3)nc(N)c21` (stereo not drawn) [Example 48-B, 4-Amino-2-{8-[(3,5-difluorophenyl)methyl]imidazo[1,2-a]pyrazin-6-yl}-5-(3-hydroxyphenyl)-5-methyl-5,7-dihydro-6H-pyrrolo[2,3-d]pyrimidin-6-one], for which, at sGC α1/β1 heterodimer, the Emax came to 114% and the EC50 was found to be 198 nM. Besides, the inhibition constant Ki in assay [1] stood at 0.723 nM.
Take `CC1(c2cccc(O)c2)C(=O)Nc2nc(-c3cn4ccnc4c(Cc4ccccc4)n3)nc(N)c21` (stereo not drawn) [Example 123-B, 4-Amino-2-(8-benzyl-imidaxol[1,2-a]pyrazin-6-yl)-5-(3-hydroxyphenyl)-5-methyl-5,7-dihydro-6H-pyrrolo[2,3-d]pyrimidin-6-one]: on sGC α1/β1 heterodimer, the Emax came to 107% and the EC50 came to 768 nM. Besides, the Ki in assay [1] is 0.372 nM.
On to `CC1(c2ccc(O)c(Cl)c2)C(=O)Nc2nc(-c3cn4ccnc4c(Cc4cccc(F)c4)n3)nc(N)c21` (stereo not drawn) [Example 35-B, 4-Amino-5-(3-chloro-4-hydroxyphenyl)-2-{8-[(3-fluorophenyl)methyl]imidazo[1,2-a]pyrazin-6-yl}-5-methyl-5,7-dihydro-6H-pyrrolo[2,3-d]pyrimidin-6-one], for which, on sGC α1/β1 heterodimer, the Emax worked out at 147% and the EC50 worked out at 402 nM. In addition, the Ki in assay [1] stood at 0.333 nM.
Turning to `CC1(c2ccc(Cl)c(O)c2Cl)C(=O)Nc2nc(-c3cn4ncnc4c(CC4CCCCC4)n3)nc(N)c21` (stereo not drawn) [Example 67-A, 4-Amino-2-(8-(cyclohexylmethyl)-[1,2,4]triazolo[1,5-a]pyrazin-6-yl)-5-(2,4-dichloro-3-hydroxyphenyl)-5-methyl-5,7-dihydro-6H-pyrrolo[2,3-d]pyrimidin-6-one], on sGC α1/β1 heterodimer, the Emax is 134% and the EC50 amounted to 728 nM. Also, the Ki in assay [1] came out at 2.65 nM.
Take `CC1(c2ccc(Cl)c(O)c2)C(=O)Nc2nc(-c3cn4ccnc4c(Cc4ccc(F)cc4)n3)nc(NCC(O)C(F)(F)F)c21` (single isomer, unassigned) [Example 132-AA, 5-(4-Chloro-3-hydroxy-phenyl)-2-{8-[(4-fluoro-phenyl)methyl]imidazo-[1,2-a]pyrazin-6-yl}-5-methyl-4-[(3,3,3-trifluoro-2-hydroxy-propyl)amino]-5,7-dihydro-6H-pyrrolo-[2,3-d]-pyrimidin-6-one]: at sGC α1/β1 heterodimer, the Emax came out at 99% and the EC50 came out at 746 nM. In assay [1], the Ki was 1.21 nM.
